≈ marks a conversion by molar mass, not a printed value. Like-named read-outs stand apart in the source and are kept apart here.
What was measured:
2B4.11 hybridoma = assay: Antigen presentation assay (IL-2 produced in response to antigen); assay type: cell-based; details: for IL2 %: 50 μM, relative to DMSO control (100%); for IL-2 production, % of the solvent only control value: 0.5% DMSO, ±SD
in vitro = assay type: cell-based
Procedure: (§1) First, to determine if the activity of C1 was due to toxicity, 2B4.11 T-cells (1×10^5) were cultured in microtiter wells in the presence of the peptide conjugates at 50 μM. After 20 hours, 30 μL were removed and cells assessed for viability by trypan blue staining. The remaining culture was then pulsed with 0.5 μCi [^3H] thymidine for 5 h, harvested, and quantitated for [^3H] thymidine uptake to assess cellular proliferation.

2B4.11 T-cells = assay: in vitro; assay type: cell-based; details: 50 μM, relative to 0.5% DMSO control; ±SD
Procedure: as §1

2B4.11 cells = assay type: cell-based; details: 50 μM
Wistar rats = assay: Adjuvant-induced arthritis model; assay type: in vivo; details: given subcutaneously, four daily injections of 6 mg at onset of arthritis
[1] = Surface plasmon resonance binding to DMPC liposomes; details: SPR
Procedure: Model membranes composed of zwitterionic and anionic phospholipids were prepared as previously described (Bender et al., 2004). Briefly, DMPC and DMPG were dissolved in dry chloroform and chloroform/methanol (2:1) respectively to give 10 mg/ml solutions. […] The solution was sonicated in an ultrasonic bath for 20 min. Eight cycles of freeze/thawing was followed by extrusion through polycarbonate filters, first 100 nm (21 times) then 50 nm pore diameter (21 times), using a Lipofast apparatus (Avestin, Ottawa, Canada) and SUVs were used immediately. SPR was carried out on a BIAcore 2000 instrument using Pioneer Sensor Chip L1 and HEPES (HBS-N, Biacore, Upssala, Sweden) as running buffer. The chip surface was cleaned with 40 mM octyl glycoside (30 μl, 10 μl/min) followed liposomes (SUV) (100 μl, 5 μl/min). 10 mM NaOH (40 μl, 10 μl/min) removed any multilamellar vesicles from the surface before injecting the lipopeptide solutions (100 μl, 5 μl/min). The dissociation stage was 1200 sec. […] All SPR experiments were run at 25° C. and all analyses were performed using the BIAevaluation software (Biacore, Uppsala, Sweden). Lipopeptide binding was expressed as the difference in signal between points before sample injection and after dissociation.

trypsin = assay type: in vitro ADME
Procedure: The effect of trypsin on C1 and CP was studied by incubating each peptide (1 μg/μl) in methanol and ammonium bicarbonate (0.1M) with 125 ng/μl of trypsin at pH 8 and 37° C. The effect of trypsin after incubation with CP and C1 was followed by mass spectrometry. […]

[2] = assay type: physicochemical
Procedure: pH stability was also investigated. C1 (2 μg/μl) was incubated at 30° C. for three days at pH 3, 7 and 10. Samples were taken after each day and analysed by mass spectrometry.

S. aureus = assay type: cell-based
Procedure: (§2) The synthetic C1 peptide and its analogues were tested using Standard disk susceptibility testing by National Committee for […] Laboratory Standards (NCCLS) against, S. aureus, E. coli and S. pneumoniae. […]

E. coli = assay: Standard disk susceptibility testing (NCCLS), E. coli; assay type: cell-based
Procedure: as §2

[3] = test system: allergic mice (OVA model); assay type: in vivo; details: 200 μg subcutaneous; compared to historical OVA/OVA mice
Procedure: The effect on the inflammatory response of the 200 μg dose and subcutaneous route of administration of cyclic C1 peptide determined in Example 8 was tested with the OVA (ovalbumin) model (Temelkovski, et al. (1998); Foster, et al. (2000); Asquith et al (2008)) according to the following study design. At the endpoint mice were euthanased and BALF was obtained by cannulating the trachea and flushing the airways with two 0.8 ml volumes of Hank's Balanced Salt Solution (HBSS). Recovered cells were treated with erythrocyte lysis buffer, cytospins prepared and stained with May-Grunwald Giemsa and differential leukocyte counts performed based on morphological criteria (min 200 cells counted/slide). Statistical analysis was performed using a student's unpaired t-test. Results were compared to historical data.

allergic mice (OVA/OVA) [4] = assay: Allergic airways disease (OVA) model: inflammatory cells in BALF; assay type: in vivo; parameters: key to Airway lymphocytes / Airway eosinophils / Airway macrophages / Airway inflammatory cells / Airway neutrophils: nc: no change; ↑: increase; ↓: decrease
allergic mice (OVA/OVA) [5] = assay: Allergic airways disease (OVA) model: local and systemic OVA-specific cytokine production; assay type: in vivo; parameters: key to Spleen OVA-stimulated IL-5 / Spleen OVA-stimulated IL-13 / LN OVA-stimulated IL-5 / LNOVA stimulated IL-13: nc: no change; ↑: increase; ↓: decrease
NOD mice = assay: Treatment of NOD mice, blood glucose level / diabetes; assay type: in vivo; details: i.p. injections of 0.1 mg
Procedure: NOD mice were fasted for at least 1.5 h prior to blood glucose level (BGL) measurements. In the morning, all mice were treated with intraperitoneal (i.p.) injections of 0.1 mg C1 and BGLs were taken. Control mice received 0.2 mL of water.

2B4 cells = assay: T-cell activation with PMA and ionomycin, IL-2 production; details: PMA 40 ng/mL + ionomycin 5 μg/mL; 50 μM; ±SD
Procedure: Further, T-cells were activated using PMA and ionomycin stimulation. The method employed to activate T cells utilized the protein kinase C activating PMA in combination with the calcium ionophore, ionomycin. In combination, PMA/ionomycin effectively activate T cells downstream from the TCR. Phorbol 12-myristate 13-acetate (PMA) (40 ng/mL) and ionomycin (5 μg/mL) were added to 2B4 cells (5×10^4) and incubated with each CP-conjugate at 50 μM in 0.5% DMSO in 96-well, round bottom microtiter plates for 24 h at 37° C. with 5% CO2 in a total volume of 250 μL. Supernatants were then collected and analysed for IL-2 production. All CP-conjugates were tested simultaneously in triplicate wells, and each experiment was performed on three separate occasions.

[6] = 200 μg s.c. during challenge, allergic mice
[7] = 200 μg/100 μl s.c. during OVA challenge, compared to OVA/OVA alone

In the case of `CC(C)C[C@@H]1NC(=O)[C@@H](CC(C)C)NC(=O)[C@H](CCCNC(=N)N)NC(=O)[C@@H](CC(C)C)NC(=O)CNC(=O)[C@@H](C(C)C)NC(=O)[C@H](CCCCN)NC(=O)[C@@H](CC(C)C)NC(=O)[C@H](CC(C)C)NC(=O)[C@@H](CC(C)C)NC1=O` [C1, LDRLDLLDLLDKVDG], the “% Ave IL2 Production” value (2B4.11 hybridoma; average, Tables 1-3) is reported as 17%, the IL2 % (2B4.11 hybridoma; fifth IL2 column (individual experiment in triplicate)) is reported as 15.6% and the IL2 % (2B4.11 hybridoma; fourth IL2 column (individual experiment in triplicate)) is reported as 18.9%. The “IL-2 production, % of the solvent only control value” (2B4.11 hybridoma; peptide 25 μM) was 59.69%±23.54, the “IL-2 production, % of the solvent only control value” (2B4.11 hybridoma; peptide 50 μM) was 7.73%±4.97 and the viability at 20 h, 50 µM (in vitro) was 86.6%. The “cellular proliferation ([3H] thymidine uptake)” value (2B4.11 T-cells) was 62.56%±14.25, the IL-2 production (2B4.11 cells) was 71.42%+/−14.275D and the “effect in reducing inflammation (total foot swelling)” value (Wistar rats) was “comparable effect to cyclosporin”. For the same compound, the “binding affinity to DMPC model membrane relative to CP” value [1] was “approximately 10 fold”, the “binding to DMPC (zwitterionic) liposomes” value ([1]; L1 sensor chip, 50 μM, 25° C.) was “bound much stronger” and the “binding relative to all the other analogues examined (with the exception of C2)” value ([1]; model membranes) was greater than 10 fold. For the same compound, the “stability without trypsin, 3 hours (Mass spectroscopy-MS)” value (trypsin) was “No degradation product”, the “stability without trypsin, 24 hours (MS)” value (trypsin) was “No degradation product” and the “pH range over which stable” value [2] was 1-11 pH. The “MIC against S. aureus” value (S. aureus) was 100 µg/mL (≈ 89.3 µM), the “antimicrobial activity, S. aureus” value (S. aureus; peptide 10 μg/ml) was “−ve” and the “antimicrobial activity, S. aureus” value (S. aureus; peptide 100 μg/ml) was “+ve”. The “antimicrobial activity, S. aureus” value (S. aureus; peptide 1000 μg/ml) was “+ve”, the “antimicrobial activity, E. coli” value (E. coli; peptide 10 μg/ml) was “−ve” and the “antimicrobial activity, E. coli” value (E. coli; peptide 100 μg/ml) was “−ve”. For the same compound, the “antimicrobial activity, E. coli” value (E. coli; peptide 1000 μg/ml) was “−ve”, the “eosinophils in BALF” value [3] was “decrease” and the “macrophages in BALF” value [3] was “significant reduction”. For the same compound, the “total inflammatory cells in BALF” value [3] was “reduction”, the “eosinophils in BALF” value (allergic mice (OVA/OVA) [4]; [6]) was “decrease” and the “total inflammatory cell counts in bronchoalveolar lavage fluid (BALF)” value (allergic mice (OVA/OVA) [4]; [6]) was “significantly decreased”. The Airway eosinophils (allergic mice (OVA/OVA) [4]; [7]) was “↓”, the Airway inflammatory cells (allergic mice (OVA/OVA) [4]; [7]) was “↓” and the Airway lymphocytes (allergic mice (OVA/OVA) [4]; [7]) was “nc”. For the same compound, the Airway macrophages (allergic mice (OVA/OVA) [4]; [7]) was “nc”, the Airway neutrophils (allergic mice (OVA/OVA) [4]; [7]) was “nc” and the “locally produced (peribronchial lymph node derived) IL-5” value (allergic mice (OVA/OVA) [5]; [6]) was “significant decrease”. For the same compound, the “locally produced (peribronchial lymph node derived) IL-13” value (allergic mice (OVA/OVA) [5]; [6]) was “significant decrease”, the “systemic (spleen derived) IL-5” value (allergic mice (OVA/OVA) [5]; [6]) was “significant decrease” and the “systemic (spleen derived) IL-13” value (allergic mice (OVA/OVA) [5]; [6]) was “significant decrease”. For the same compound, the “LN OVA-stimulated IL-5” value (allergic mice (OVA/OVA) [5]; [7]) was “↓”, the “LNOVA stimulated IL-13” value (allergic mice (OVA/OVA) [5]; [7]) was “↓” and the “Spleen OVA-stimulated IL-5” value (allergic mice (OVA/OVA) [5]; [7]) was “↓”. The “Spleen OVA-stimulated IL-13” value (allergic mice (OVA/OVA) [5]; [7]) was “↓”, the “blood glucose level control versus control group” value (NOD mice) was “more tightly controlled” and the “mice that developed diabetes (BGL higher than 15 mM on two consecutive days)” value (NOD mice; preliminary results, control 7/21) was 2/7. For the same compound, the “IL-2 production relative to the DMSO control” value (2B4 cells) was 62.83%+/−17.60.

Reference: patent US20120077732A1, “CYCLIC PEPTIDES AND USES THEREOF” (SYDNEY WEST AREA HEALTH SERVICE, priority 2008, published 2012)
